Read-outs that look alike come from different tables or passages of the source. Square brackets hold non-standard residues; d marks the D form. Peptide text beside a SMILES is read from it. Nle = CCCC[C@H](N)C(=O)O
Columns and labels:
[1] = stability in human plasma; type: in vitro ADME; conditions: pH 7.4, Conc. 10 uM, 37° C.
Experimental: (§1) The following study was conducted to assess the stability of the compound of Examples 2-4 (SEQ ID NOS: 9, 10 and 11) in Hannover Wistar rat and human plasma after 4 and 24 hours. Approximately, 2.0 mg of the compound of Examples 2-4 (SEQ ID NOS 9, 10 and 11) was weighed out and placed in a 4 mL amber vial. To this was added 1.0 mL DMSO. The vial was carefully vortexed to produce a solution of approximately 600 μM.
(§2) Hannover Wistar rat plasma and human plasma (anti-coagulant sodium EDTA) were pre-warmed to 37° C. for 30 minutes in a water bath. The pH of both plasmas was adjusted to pH7.4. 1.5 mL microcentrifuge vials were used.
(§3) The stock solution of the compound of Examples 2-4 was diluted into rat or human plasma to a final concentration of 10 μM. The two vials were gently vortexed ensuring proper mixing.
(§4) Six new vials were labeled as follows: rat T0, rat T4, rat T24, human T0, human T4, human T24. To each of these vials, 50 μL of treated plasma was added. The T4 and T24 vials were capped and placed in a 37° C. incubator for 4 and 24 hours, respectively.
(§5) To each of the two T0 vials, 50 μL of Sorensen buffer and 200 μL 1.0% acetic acid in acetonitrile were added. The T0 vials were then capped, vortexed and centrifuged at 10000×g for 10 minutes. Upon completion of centrifugation, 100 μL of the supernatant of each vial was added to a separate well in a 96-well injection block. 200 µL of 0.1% acetic acid in Milli-Q® water (Millipore) was then added to each well.
(§6) The above procedure as written with respect to the T0 vials was repeated for the two T4 vials at the 4 hour time point and the T24 vials at the 24 hour time point. With each time point a fresh T0 sample was prepared, as described above, to ensure there was no sample degradation.
(§7) All samples were analyzed by LC/MS/MS. The resulting chromatographs were processed to obtain peaks areas for each sample. The percent of compound remaining at each time point as compared with the amount present in the comparison T0 sample was calculated.

[2] = biological target: T1, human eIF4E (Homo sapiens, UniProt P06730); test: biochemical assay of peptide binding to human eIF4E (displacement of biotin labeled 4G2 peptide)
T1 construct: made in house
Experimental: A biochemical assay was run to test peptide binding to human eIF4E.
Human eIF4E (aa 28-217, SEQ ID NO: 87) with a C-terminal His tag (HH-eIF4E, SEQ ID NO: 88) was expressed in E. coli in inclusion bodies. The protein was solubilized with 8 M urea and purified under denaturing conditions using nickel-charged HisTrap HP columns (GE Healthcare). The protein was refolded by diluting to approximately 0.25 mg/mL with 6 M urea, 20 mM Hepes pH 7.0, 500 mM NaCl, 1 mM DTT, 1 mM EDTA, and 0.5 M arginine.HCl, and then dialyzing overnight into the same buffer without the urea. The protein was further dialyzed into 20 mM Hepes pH 6.5, 50 mM NaCl, 1 mM EDTA, and 1 mM DTT, filtered, and then concentrated using Hitrap SP sepharose FF columns (GE Healthcare). The protein was dialyzed into 20 mM Hepes pH 7.0, 500 mM NaCl, 5 mM DTT, and 10% glycerol and stored at −80° C. until use.
Test peptides (1.6 mM stock in DMSO) were diluted 3 fold in series in DMSO and solutions were diluted 4 fold in Assay Buffer (50 mM NaPi, pH 6.5, 50 mM KCl, 1 mM DTT, 0.004% NP40 and 0.5 mg/ml gammaglobulin). Six microliters per well of diluted peptide solutions and 12 microliters per well of 187.5 nM HH-eIF4E in Assay Buffer were added to 384-well polypropylene microplates (Matrix, Thermal Scientific). Twelve microliters per well of 187.5 nM biotin labeled 4G2 peptide (Ac-[…]Aha-Bio)-NH2 (SEQ ID NO: 91) 1:2 TFA) in Assay Buffer was added. The samples were incubated at room temperature for 20 minutes.
Six microliters per well of 4.8 nM Eu-streptavidin (Columbia Biosciences) and 48 nM Allophycocyanin-anti His antibody (Columbia Biosciences) in Assay Buffer (without DTT) were then added and the samples were incubated at room temperature for 30 min. Assay signals were monitored by reading emission fluorescence at 665 nm on an Envision Reader (PerkinElmer Life and Analytical Sciences). IC50 values were calculated using Condoseo software (Genedata AG, Basel, Switzerland).

[3] = test system: downstream target gene expression; test: downstream target gene expression and apoptosis (FIG. 2); type: cell-based
[4] = stability in rat plasma; type: in vitro ADME; conditions: Hannover Wistar, pH 7.4, Conc. 10 uM, 37° C.
Experimental: as §1, §2, §3, §4, §5, §6, §7

[5] = Binding affinities expressed as IC50, HH-eIF4E, biotin labeled 4G2 peptide
[6] = IC50 (μM), Table 2a, cell penetrating peptides with the Y----LL-F and YWLLALFVY motifs

T1 sequence (P06730 with tags, fused parts or gaps): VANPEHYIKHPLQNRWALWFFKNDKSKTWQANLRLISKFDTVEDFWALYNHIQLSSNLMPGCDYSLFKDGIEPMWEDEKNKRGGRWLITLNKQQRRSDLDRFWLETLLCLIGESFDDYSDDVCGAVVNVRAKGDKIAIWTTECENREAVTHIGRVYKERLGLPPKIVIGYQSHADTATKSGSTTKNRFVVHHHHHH

Compound	remaining at 4 h, 10 µM [1] [%]	remaining at 24 h, 10 µM [1] [%]	IC50 [2, 5] [µM]	apoptosis [3]	downstream target gene expression [3]	remaining at 4 h, 10 µM [4] [%]	remaining at 24 h, 10 µM [4] [%]	IC50 [2, 6] [µM]	also measured
Ac-MAKLKYWLLALFVYMWTDLLLFKKRPKP-NH2 [SEQ ID NO: 9]	94.9	76.2	4.4	induce apoptosis	inhibit downstream target gene expression	91.7	18.2	–	–
CCCC[C@H](NC(=O)[C@H](CC(C)C)NC(=O)[C@H](CC(=O)O)NC(=O)[C@@H](NC(=O)[C@H](Cc1c[nH]c2ccccc12)NC(=O)[C@H](CCSC)NC(=O)[C@H](Cc1ccc(O)cc1)NC(=O)[C@@H](NC(=O)[C@H](Cc1ccccc1)NC(=O)[C@H](CC(C)C)NC(=O)[C@H](C)NC(=O)[C@H](CC(C)C)NC(=O)[C@H](CC(C)C)NC(=O)[C@H](Cc1c[nH]c2ccccc12)NC(=O)[C@H](Cc1ccc(O)cc1)NC(=O)[C@H](C)NC(=O)[C@H](CC(C)C)NC(=O)[C@H](C)NC(=O)[C@H](C)NC(=O)[C@H](CCSC)NC(C)=O)C(C)C)[C@@H](C)O)C(=O)N[C@@H](CC(C)C)C(=O)N[C@@H](Cc1ccccc1)C(=O)N[C@@H](CCCCN)C(=O)N[C@@H](CCCCN)C(=O)N[C@@H](CCCNC(=N)N)C(=O)N1CCC[C@H]1C(=O)N[C@@H](CCCCN)C(=O)N1CCC[C@H]1C(N)=O [SEQ ID NO: 28] (Ac-MAALAYWLLALFVYMWTDL[Nle]LFKKRPKP-NH2)	–	–	–	–	–	–	–	4.59	–
Ac-MANLAYWLLALFVYMWTDLRLFKKRPKP-NH2 [SEQ ID NO: 10]	99.1	45.2	6.61	induce apoptosis	inhibit downstream target gene expression	102	23.7	1.7	–
Ac-MANLAYWLLALFVYLWTDLRLFKKRPKP-NH2 [SEQ ID NO: 38]	–	–	–	–	–	–	–	3.04	–
Ac-GAAEAAAYVYDLLLRFLRQRRRLRRERVRA-NH2 [SEQ ID NO: 25]	–	–	–	–	–	–	–	–	IC50 ([2]; Table 2, cell-penetrating peptides with the Y----LL-F motif, read-out: IC50): 11 µM
Ac-MANLGYWLLALFVYMWTDLLLFKKRPKP-NH2 [SEQ ID NO: 16]	–	–	–	–	–	–	–	–	IC50 ([2]; IC50 (μM), Table 2, cell-penetrating peptides with the Y----LL-F motif): 3.03 µM
